Data taken from patent US6492401B1, “N-[(substituted five-membered di- or triaza diunsaturated ring)carbonyl] guanidine derivatives for the treatment of ischemia” (Pfizer, Inc., priority 1998, dated 2002).

Target: T1, human NHE-1 (Homo sapiens, UniProt P19634)
T1 construct: expressed in transfected cells; host or cells: fibroblasts stably expressing human NHE-1 (cell line per Counillon et al., Mol. Pharmacol. 44:1041-1045, 1993)
Test: Measurement of human NHE-1 inhibitory activity (NHE-mediated recovery of intracellular pH after acidification, BCECF fluorescence)
Format: cell-based
Conditions: fibroblasts stably expressing human NHE-1
Method: Methodologies for measurement of human NHE-1 activity and inhibitor potency are based on those published by Watson et al., Am. J. Physiol., 24:G229-G238, 1991), where NHE-mediated recovery of intracellular pH is measured following intracellular acidification. Thus, fibroblasts stably expressing human NHE-1 (Counillon, L. et al., Mol. Pharmacol., 44:1041-1045 (1993) are plated onto collagen coated 96 well plates (50,000/well) and grown to confluence in growth media (DMEM high glucose, 10% fetal bovine serum, 50 u/ml penicillin and streptomycin). Confluent plates are incubated for 30 min at 37° C. with the pH sensitive fluorescent probe BCECF (5 μM; Molecular Probes, Eugene, Oreg.). BCECF loaded cells are incubated for 30 min at 37° C. in acid loading media (70 mM choline chloride, 50 mM NHCl4, 5 mM KCl, 1 mM MgCl2, 1.8 mM CaCl2, 5 mM glucose, 10 mM HEPES, pH 7.5), and then placed in a Fluorescent Imaging Plate Reader (Molecular Devices, CA). BCECF fluorescence is monitored using excitation and emission wavelengths of 485 nm and 525 nM, respectively. Intracellular acidification is initiated via rapid replacement of acid loading media with recovery media (120 mM NaCl, 5 mM KCl, 1 mM MgCl2, 1.8 mM CaCl2, 5 mM glucose, 10 mM HEPES, pH 7.5)±test compound, and NHE-mediated recovery of intracellular pH is monitored as the subsequent time-dependent increase BCECF fluorescence.

T1 sequence (P19634 whole entry): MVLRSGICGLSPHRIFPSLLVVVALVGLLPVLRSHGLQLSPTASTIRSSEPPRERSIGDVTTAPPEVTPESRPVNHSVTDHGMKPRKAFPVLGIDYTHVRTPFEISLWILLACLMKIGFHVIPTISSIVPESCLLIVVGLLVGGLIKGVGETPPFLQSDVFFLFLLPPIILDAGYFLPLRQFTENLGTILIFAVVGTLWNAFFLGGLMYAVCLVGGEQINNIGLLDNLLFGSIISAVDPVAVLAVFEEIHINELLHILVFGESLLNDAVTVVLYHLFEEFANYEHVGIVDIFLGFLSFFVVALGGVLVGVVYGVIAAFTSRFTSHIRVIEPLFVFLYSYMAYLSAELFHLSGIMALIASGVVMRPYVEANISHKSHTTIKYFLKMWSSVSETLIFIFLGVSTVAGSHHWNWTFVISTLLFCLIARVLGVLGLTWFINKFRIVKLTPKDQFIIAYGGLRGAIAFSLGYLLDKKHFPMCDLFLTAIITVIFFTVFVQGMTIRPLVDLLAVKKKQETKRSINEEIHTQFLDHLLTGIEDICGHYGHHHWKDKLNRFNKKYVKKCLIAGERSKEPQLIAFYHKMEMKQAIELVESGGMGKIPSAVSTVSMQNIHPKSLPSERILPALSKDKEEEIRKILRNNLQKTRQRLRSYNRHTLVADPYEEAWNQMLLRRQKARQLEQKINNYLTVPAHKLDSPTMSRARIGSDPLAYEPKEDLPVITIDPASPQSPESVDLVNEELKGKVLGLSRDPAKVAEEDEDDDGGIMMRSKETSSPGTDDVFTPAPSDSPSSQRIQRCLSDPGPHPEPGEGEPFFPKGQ

IC50: 500 nM
SMILES: CC(C)c1ccc(C(=O)NC(=N)N)cc1S(C)(=O)=O [HOE-642]
